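Protocol summary: plate cells (96-well), add compound at 5 concentrations, incubate 48 h, interpolate endpoints linearly. GI50 is the concentration that inhibits growth by half. Definition used: TGI = concentration required for complete inhibition of growth.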
Columns and labels:
Test in all cases: inhibition of tumour cell growth, NCI panel, 48 h
[1] = tested on: HCC-2998 colon
[2] = tested on: HCT-116 colon
[3] = tested on: HOP-62 NSCLC
[4] = tested on: MCF7 breast
[5] = tested on: MDA-MB-435
[6] = tested on: PC-3 prostate
[7] = tested on: SF-268 CNS
[8] = tested on: SK-MEL-28 melanoma
[9] = tested on: SK-MEL-5 melanoma
[10] = tested on: SNB-19 CNS

| SMILES | GI50 [1] [µM] | TGI [1] [µM] | GI50 [2] [µM] | TGI [2] [µM] | GI50 [3] [µM] | TGI [3] [µM] | GI50 [4] [µM] | TGI [4] [µM] | GI50 [5] [µM] | TGI [5] [µM] | GI50 [6] [µM] | TGI [6] [µM] | GI50 [7] [µM] | TGI [7] [µM] | GI50 [8] [µM] | TGI [8] [µM] | GI50 [9] [µM] | TGI [9] [µM] | GI50 [10] [µM] | TGI [10] [µM] |
| --- | --- | --- | --- | --- | --- | --- | --- | --- | --- | --- | --- | --- | --- | --- | --- | --- | --- | --- | --- | --- |
| N#Cc1cc(S(=O)(=O)Nc2nc3ccccc3o2)c(SCc2ccccc2)cc1Cl | 19 | 34.3 | 17.8 | 38.6 | 21.4 | 43.6 | 39.8 | > 100 | 27.2 | 60.2 | 21.4 | 43.4 | 31.7 | > 100 | 18.9 | 40.4 | 17 | 31.9 | 20.9 | 56.1 |
| O=P(O)(O)OCC1OC(n2cnc3c(NCc4ccccc4)ncnc32)C(O)C1O (stereo not drawn) | 2.01 | 11.8 | 1.66 | > 32.1 | 1.74 | 27.9 | 1.31 | 19.3 | 3.23 | > 100 | 1.2 | > 36.2 | 2.03 | > 100 | 21.2 | > 100 | 17 | > 100 | 4.18 | > 100 |
| CC(C)c1ccc(NC(=O)Cc2ccc(Nc3ncnc4cc(-c5cnn(CCN(C)C)c5)ccc34)cc2)cc1 | 1.66 | 3.42 | 1.19 | 2.7 | > 10 | > 10 | 1.06 | 3.04 | 2.34 | > 10 | 1.31 | 2.92 | 1.32 | 3.09 | > 10 | > 10 | > 10 | > 10 | 1.27 | 3.39 |
| Nc1c2ccccc2nc2c(C(=O)Nc3ccc(S(N)(=O)=O)cc3)cccc12 | – | > 100 | – | > 100 | – | > 100 | – | – | – | – | – | – | – | > 100 | – | > 100 | – | > 100 | – | > 100 |
| CC(SCc1ccccc1)C(=O)O (stereo not drawn) | – | – | – | > 100 | – | > 100 | – | > 100 | – | > 100 | – | > 100 | – | > 100 | – | > 100 | – | > 100 | – | > 100 |
| COC(=O)C1CCc2nnc(-c3ccccc3)n21 (stereo not drawn) | – | > 100 | – | > 100 | – | > 100 | – | – | – | – | – | – | – | > 100 | – | > 100 | – | > 100 | – | > 100 |
| c1ccc(OC2=NC3=S(S2)SC(Oc2ccccc2)=N3)cc1 | – | 35.2 | – | 33.4 | – | 67.1 | – | – | – | – | – | – | – | 57.6 | – | – | – | 36.3 | – | 45.1 |
| CCC[CH2][Sn]1([CH2]CCC)[S]CC[N]1S(=O)(=O)c1ccc(C)cc1 | 1.95 | 3.44 | 1.42 | 2.81 | 2.22 | 3.83 | – | – | – | – | – | – | 1.19 | 2.54 | 1.29 | 2.61 | 1.68 | 3.2 | 1.45 | 2.75 |
| CCOC(=O)C1=C(C)NC(c2ccco2)=C(C#N)C1c1cccc([N+](=O)[O-])c1 (stereo not drawn) | 0.0558 | 0.159 | – | 4.17 | 0.0174 | 17.2 | 0.0339 | 20.8 | – | – | – | 0.0554 | 0.0783 | 41.4 | 0.0105 | 22.5 | – | 0.311 | 0.0253 | – |
| CO[C@@]1(c2ccccc2)O[C@H]2OCCC2[C@H]1c1ccc(Cl)cc1 (stereo partly drawn) | – | > 100 | – | > 100 | – | > 100 | – | – | – | – | – | – | – | > 100 | – | > 100 | – | 33.1 | – | > 100 |
| CC(=O)[O-].N.N.N.N.[Co+3].[O-][Cl+3]([O-])([O-])[O-].[OH3+] | > 100 | > 100 | > 100 | > 100 | > 100 | > 100 | – | – | – | – | – | – | > 100 | > 100 | > 100 | > 100 | > 100 | > 100 | > 100 | > 100 |
| O=C(O)c1ccc(SSc2ccc(C(=O)O)cn2)nc1 | – | – | – | > 100 | – | > 100 | – | > 100 | – | > 100 | – | > 100 | – | > 100 | – | > 100 | – | > 100 | – | > 100 |
| C[CH2][Sn]([CH2]C)([O]C(=O)c1ccc(F)cc1)[O]C(=O)c1ccc(F)cc1 | 90.9 | > 100 | 33 | > 55.8 | 62.6 | > 100 | – | – | – | – | – | – | 17.9 | 33.5 | 18.6 | 34.8 | 39.6 | > 100 | 16.7 | 30.5 |
| CN1CCN(CCCOc2cc(O)c3c(=O)cc(-c4ccccc4)oc3c2)CC1 | 14.3 | 27.3 | – | – | 16.6 | 32 | 15.3 | 30 | 13.7 | 32.9 | 31.4 | > 100 | 20.1 | 48.7 | 16.1 | 30.6 | 10.3 | 23.1 | 24.9 | 63.5 |
| C=C1C(OC(C)=O)CC(OC(C)=O)C2(C)C(OC(C)=O)C(OC(C)=O)C3=C(C)C(OC(=O)/C=C/c4ccccc4)CC(C(OC(C)=O)C12)C3(C)C (stereo not drawn) | – | > 100 | – | > 100 | – | > 100 | – | – | – | – | – | – | – | > 100 | – | – | – | > 100 | – | > 100 |
| COCCNc1cncc(C(N)=O)c1 | – | > 100 | – | > 100 | – | > 100 | – | > 100 | – | – | – | > 100 | – | > 100 | – | > 100 | – | > 100 | – | > 100 |
| CCOC(=O)/C=C/c1cccc(F)c1 | – | > 100 | – | > 100 | – | > 100 | – | > 100 | – | > 100 | – | > 100 | – | > 100 | – | > 100 | – | – | – | > 100 |

From PubChem BioAssay (NCI)
